Experimental data taken from patent US11389465B2, “Phosphorylated hexaacyl disaccharides (PHADs) for treating or preventing infections” (VANDERBILT UNIVERSITY, priority 2017, dated 2022).

Columns and labels:
Pseudomonas aeruginosa = test: Pseudomonas burn wound infection in mice, MPLA given before inoculation (FIG. 1); format: in vivo; settings: MPLA 20 μg
Procedure: FIG. 1. MPLA treatment improves host resistance to Pseudomonas burn wound infection. Mice exposed to a 20% full thickness burn wound were treated with MPLA on days 3 and 4 post-burn and were inoculated with 1×10^8 Pseudomonas aeruginosa in the caudad (area 3) portion of the burn wound. A. Wounds were excised 48 hours after inoculation, sectioned into 3 segments (areas 1-3) and homogenized. Bacterial colony forming units (cfu) were determined by culture on agar plates. B. At 4-6 days after infection, wound and lungs were harvested, homogenized and cultured to measure Pseudomonas cfu. C. Survival was determined after Pseudomonas infection. *p<0.05 compared to vehicle.
Consequently, MPLA is currently employed by Glaxo Smith Kline as a component of the FDA-approved ASO4 vaccine adjuvant system (27, 28). […] It was also shown that total wound bacteria and dissemination of Pseudomonas from the burn wound to the lungs was diminished in mice treated with MPLA (FIG. 1B).

[1] = infusion; not at lower doses; cited from earlier work
C. albicans = test: Systemic (intravenous) C. albicans infection in MPLA-primed mice (FIG. 2); format: in vivo; settings: MPLA 20 μg; intravenous C. albicans 1×10^8 CFU
Procedure: FIG. 2. MPLA induces resistance to S. aureus and C. albicans infection. A) WT BALB/c mice were injected with intravenous MPLA (20 μg/mouse) or vehicle one and two days prior to intravenous inoculation with intravenous 10^8 cfu S. aureus or 10^8 cfu C. albicans. B) Kaplan Meier survival curve of vehicle- and MPLA-primed mice. (n=12 mice/group) after S. aureus inoculation. C) Core (rectal) body temperature assessed daily after S. aureus inoculation. D) S. aureus cfu per gram of tissue recoverable from whole spleen, lung, and kidney in vehicle and MPLA-primed mice at 3 days after S. aureus inoculation. E) Concentration of serum IL-6 2 hours after S. aureus inoculation or vehicle. F) Concentration of serum BUN 3 days after S. aureus inoculation or vehicle. G) Kaplan Meier survival curve of vehicle- and MPLA-primed mice. (n=12 mice/group) after intravenous 10^8 cfu C. albicans inoculation. H) Core (rectal) body temperature after C. albicans inoculation. Data shown as mean+/−SEM. For Kaplan-Meier plots *, p<0.05 via log-rank Mantel-Cox test. Otherwise, *, p<0.05 as determined by ANOVA with Tukey's post-hoc multiple comparison test.
MPLA is also effective in improving survival in models of systemic S. aureus and C. albicans infection. Mice treated with MPLA (20 μg) after a 20% cutaneous burn received intravenous challenge with S. aureus or C. albicans (1×10^8 CFU) on day 5 post-burn (FIG. 2).

[2] = test system: tissue macrophages and neutrophils; test: MPLA modulation of tissue macrophages and neutrophils (FIG. 10); format: in vivo, mice
From the text: FIG. 10. MPLA induces resistance to infection via modulation of tissue macrophages and neutrophils. A-C) Total splenic A) macrophages, B) neutrophils, and C) monocytes 3 days after S. aureus inoculation or vehicle in MPLA- and vehicle-primed mice. D) Representative image of F4/80^+ immunohistochemical staining (brown) in kidney 3 days after S. aureus inoculation in MPLA- and vehicle-primed mice E) Optical density quantification of F4/80^+ staining in kidneys. F) Mice were primed with MPLA or vehicle via intraperitoneal injection and 24 hours later pHrodo tagged S. aureus bioparticles were injected into the peritoneal cavity. Peritoneal leukocytes were harvested 6 hours later and assessed for pHrodo MFI via flow cytometry. G) Mice were primed with MPLA or vehicle via intraperitoneal injection and 24 hours later leukocytes were harvested from the peritoneal cavity. Respiratory burst was elicited by 45 minutes of PMA stimulation and DHR 123 MFI of macrophages, neutrophils, and monocytes was assessed by flow cytometry. H) Mice were administered intravenous clodronate-liposomes 24 hours prior to the first MPLA administration. Mice were then inoculated with intravenous 10^8 cfu S. aureus. Kaplan-Meier survival plot after S. aureus infection (n=15 mice/group). I) Mice were administered intravenous anti-Ly6G antibody 24 hours prior to the first MPLA administration. Mice were then inoculated with intravenous 10^8 cfu S. aureus. Kaplan-Meier survival plot after S. aureus infection (n=10 mice/group). J) C57BL6 WT and CCR2^−/− mice were primed with MPLA or vehicle and inoculated with intravenous 10^8 cfu S. aureus. Kaplan-Meier survival plot after S. aureus infection (n=10 mice/group). K) WT C57BL6 and RAG2^−/− mice were injected with intravenous MPLA or vehicle prior to intravenous inoculation with 10^8 cfu S. aureus. Kaplan-Meier survival plot (n=10 mice/group). Data shown as mean+/−SEM. For Kaplan-Meier plots *, p<0.05 via log-rank Mantel-Cox test. Otherwise, *, p<0.05 as determined by ANOVA with Tukey's post-hoc multiple comparison test
MPLA treatment increases macrophage, monocyte and neutrophil accumulation in the spleen (FIG. 10, A-C), increases macrophage accumulation in S. aureus abscesses (FIG. 10, D-E) and increases macrophage phagocytosis and respiratory burst functions (FIG. 10, F-G).

[3] = test system: Bone marrow derived macrophages (BMDMs); test: Metabolic reprogramming of bone marrow derived macrophages by MPLA (FIG. 11); format: cell-based; settings: 1 μg/mL MPLA for 24 hours
Procedure: FIG. 11. MPLA drives persistent and dynamic metabolic reprogramming in macrophages. A) Bone marrow derived macrophages (BMDMs) were primed with 1 μg/mL MPLA for 24 hours, washed, and rested for 3 days (3 dp macrophages). These macrophages were compared to BMDMs stimulated with 1 μg/mL MPLA for 24 hours prior to assessment (24 hr macrophages) and untreated BMDMs (control). B) Glycolysis stress test of macrophages as determined by the Seahorse Xf^e96. C) Maximal extracellular acidification rate (ECAR) derived after the addition of oligomycin in the glycolysis stress test D) Glucose consumed from BMDMs over 24 hours, as determined by glucose concentration in cell-free medium subtracted by cell-containing medium. E) Lactate produced by BMDMs over 24 hours, as determined by lactate in cell-containing medium subtracted by cell free medium. F) Basal oxygen consumption rate (OCR) determined after the addition of glucose in the glycolysis stress test. G) Mitochondrial stress test of BMDMs as determined by the Seahorse Xfi96. H) Maximal oxidative rate derived after the addition of FCCP in the mitochondrial stress test. I) Intracellular ATP from BMDMs as determined by luminescence assay. Some BMDMs were exposed to 10 mM 2-DG or IlpM oligomycin for 3 hours prior to the assay. J) MitoTracker Green staining of BMDMs as determined by flow cytometry. K) Mitochondrial DNA (mtDNA)/nuclear DNA (nucDNA) as determined by qPCR. L) Succinate dehydrogenase (SDHA), citrate synthase (CS), and β-actin as determined by western blot. All bands shown derived from the same samples. […] Densitometry of SDHA and CS compared to β-actin derived from ImageJ shown. All experiments replicated at least twice. Data shown as mean+/−SEM. *, p<0.05 as determined by ANOVA with Tukey's post-hoc multiple comparison analysis.

In the case of Monophosphoryl Lipid A [MPLA], the “total wound bacteria and dissemination of Pseudomonas from the burn wound to the lungs” value (Pseudomonas aeruginosa; 20% burn, 4-6 days after infection) is reported as “diminished”, the survival (Pseudomonas aeruginosa; 20% burn, Pseudomonas wound infection) is reported as “One hundred” and the “spread of bacteria within the burn wound (areas 1 and 2)” value (Pseudomonas aeruginosa; 20% cutaneous burn, wound inoculated in area 3) is reported as “decreased spread of bacteria within the burn wound”. For the same substance, the “MPLA dose at which humans show subjective changes consistent with systemic inflammation” value [1] was 0.01 mg/kg, the survival (C. albicans) was 40% and the “macrophage, monocyte and neutrophil accumulation in the spleen” value ([2]; 3 days after S. aureus inoculation) was “increases”. For the same substance, the “beneficial effects of MPLA after depletion of macrophages or neutrophils” value ([2]; clodronate-liposomes or anti-Ly6G, survival after S. aureus, not with cells of the adaptive immune system) was “ablates the beneficial effects of MPLA”, the “macrophage phagocytosis and respiratory burst functions” value ([2]; intraperitoneal priming, peritoneal leukocytes) was “increases” and the “macrophage accumulation in S. aureus abscesses” value ([2]; kidney, F4/80+ staining, 3 days after inoculation) was “increases”. The ATP production [3] was “enhances ATP production”, the “macrophage metabolism: glycolysis and oxygen consumption” value [3] was “increased glycolysis and oxygen consumption” and the mitochondrial biogenesis [3] was “enhances”.
